From patent US9345677B2, “Compositions, methods and kits relating to HER-2 cleavage” (Incyte Corporation, priority 2003, dated 2016)
pIC50: −log10 of the molar value.

Legend:
[1] = tested on: BT-474-SC1 tumor xenografts; assay: Tumor volume in BT-474-SC1 xenograft model; assay type: in vivo, mice
Protocol: For the BT-474-SC1 tumor model (see Results below), slow-release estrogen pellets (Innovative Research of America) were inserted subcutaneously (s.c.) into the flank of each mouse 24 hours prior to tumor cell inoculation. Balb/C nude and SCID-bg mice were obtained from Charles River Laboratories. Cells were harvested from their tissue culture plates, counted, centrifuged, and resuspended in serum free growth media and BD Matrigel™ at a 1:1 ratio immediately prior to implantation. In either one or two locations, 1−2×10^7 viable BT-474-SC1 cells were injected s.c. into the upper flank of each mouse. For all models, tumors were measured on a weekly basis and their volumes calculated using the formula [volume=(length×width^2)÷2]. Once the mean tumor volume of the required number of mice reached the desired size (usually >150 mm^3), they were randomized into treatment groups usually containing between 6 and 12 mice. Animals were then treated with compound or vehicle (10% DMAC, 30% propylene glycol) by mini-osmotic pump (Alzet, Cupertino, Calif.) implanted i.p. or s.c. for 7 to 28 days to achieve the desired compound exposure—controlled by altering the pump flow rate and/or the concentration of compound inside the pumps. Tumor size and body weights (a measure of animal health) were monitored weekly. Blood samples were also drawn (retro-orbital) while the osmotic pumps were functional and plasma was separated by centrifugation and stored at −80° C. for later pharmacokinetic and/or ELISA analysis, to determine the levels of circulating Her-2 ECD (described above). Note that in experiments designed to evaluate the effects of compound treatment on levels circulating Her-2 ECD, blood samples were drawn on the day osmostic pumps were implanted (day 0) and then again six days later (day 6).

circulating Her-2 ECD = assay: Plasma Her-2 ECD ELISA in BT-474-SC1 xenograft mice; assay type: in vivo
Protocol: For the BT-474-SC1 tumor model (see Results below), slow-release estrogen pellets (Innovative Research of America) were inserted subcutaneously (s.c.) into the flank of each mouse 24 hours prior to tumor cell inoculation. Balb/C nude and SCID-bg mice were obtained from Charles River Laboratories. Cells were harvested from their tissue culture plates, counted, centrifuged, and resuspended in serum free growth media and BD Matrigel™ at a 1:1 ratio immediately prior to implantation. In either one or two locations, 1−2×10^7 viable BT-474-SC1 cells were injected s.c. into the upper flank of each mouse. For all models, tumors were measured on a weekly basis and their volumes calculated using the formula [volume=(length×width^2)÷2]. Once the mean tumor volume of the required number of mice reached the desired size (usually >150 mm^3), they were randomized into treatment groups usually containing between 6 and 12 mice. […] Tumor size and body weights (a measure of animal health) were monitored weekly. […]
To measure levels of circulating Her-2 ECD in mice, plasmas were isolated from the blood samples described above and analyzed shortly after harvesting or stored frozen at −80° C. until analysis. To assess Her-2 ECD levels, plasma samples were diluted 1:5 and analyzed using a commercially available Her-2 ELISA kit per manufacturer's instructions (Oncogene Research, catalog #QIA10). […]

[2] = tested on: AKT and ERK phosphorylation in MCF7 cells; assay: Western blot of phospho-ERK and phospho-AKT; assay type: cell-based, human; settings: Her-2 non-overexpressing MCF7 cells
[3] = tested on: Her-2 cleavage in BT-474 cells; assay: Western blot of Her-2 ECD (105 kDa) in culture supernatants; assay type: cell-based, human
[4] = tested on: Her-2 cleavage in SK-BR3 cells; assay: as above; assay type: cell-based, human; settings: varying concentrations
[5] = tested on: Her-2 cleavage in a primary breast tumor cell line that over expresses Her-2; assay: Shed Her-2 ECD in primary breast tumor cell culture; assay type: cell-based, human; settings: primary breast tumor cell line over expressing Her-2
Protocol: Tumor specimens were obtained by Oncotech (Tustin, Calif.) according to their IRB approved protocol using standard procedures known in the art. Cell cultures were maintained in tissue culture flasks. Cells intended for experimental treatment were harvested in log phase with EDTA and were plated at a density of 1×10^5 cells/well in 24-well polystyrene plates in 0.5 ml RPMI with 10% FCS. Experiments to determine the effects of MPIs on shed Her-2 receptor were performed as described below for BT-474 cells.
(§1) BT474 cells were seeded in 100 μL of RPMI medium containing 10% FCS+10 μg/ml insulin in 96 well plates at 2×10^4 cells/well. The cells were incubated overnight at 37° C. The following morning, the media was removed and 100 μL of fresh media with or without compound was added back. The cells were incubated for about 72 hours at 37° C. After about 72 hours, the supernatants were removed. The samples were diluted 1:10 and analyzed using a commercially available Her-2 ELISA kit per manufacturer's instructions (Oncogene Research, catalog #QIA 10).

[6] = tested on: AKT and ERK phosphorylation in BT474 cells; assay: Western blot of phospho-ERK and phospho-AKT; assay type: cell-based, human
Protocol: In experiments to determine the effects of MPI treatment on cell signaling, BT474 cells were plated at 1×10^5 cells/mL in 2 mL of media (RPMI+10% FCS+10 μg/mL insulin) in 12-well plates. […] After 5 days, the cells were harvested, lysed in 200 μL ice-cold lysis buffer containing 10 mM Tris, pH 7.2, 150 mM NaCl, 1% Triton X-100, 1% deoxycholic acid, 0.1% SDS, 50 μg/mL leupeptin, 50 μg/mL aprotinin, 1 mM sodium vanadate, 50 mM sodium fluoride, 1 mM PMSF. After 10 minutes on ice, the samples were microfuged at 13,000 rpm for 10 minutes at 4° C. and the supernatants collected. For analysis, 15 μL of 2× Laemmli sample buffer (BioRad, cat#161-0737) was added to 15 μL of extract, samples boiled for 5 minutes and loaded onto 12-well 12% Tris-Glycine gels (Novex, cat# EC60052). Gels were run in 1× Tris-Glycine-SDS buffer (Gibco BRL) using Novex minigel apparatus for approximately 1.5 hours. Following electrophoresis, proteins were transferred onto PVDF membrane (NEN, cat#NEF1000) in 1× Tris-Glycine buffer (Biorad, cat#161-0734) containing 20% MeOH for 2-3 hours using BioRad miniblot transfer system. After transfer, membranes were blocked in PBS+5% milk+0.1% Tween-20 for 1 h at RT. […]
Phosphorylation of AKT and the MAP kinase ERK were monitored by western blot analysis using phospho-specific antibodies.

Her-2 sheddase = assay: Her-2 ECD ELISA of BT474 culture supernatants (Her-2 sheddase inhibition); assay type: cell-based, human
Protocol: as §1
These inhibitors were added, at varying concentrations, to cultures of BT474 cells, a Her-2 overexpressing breast cancer cell line known to enzymatically process cell surface Her-2 (p185) and release the extracellular domain (ECD) into the culture supernatant, i.e., shedding of ECD. After 72 hours, cell culture supernatants were harvested and assayed for Her-2 ECD content using an ELISA assay.

Q: With `COC(=O)N1CC2(CC2)C[C@H](C(=O)NO)[C@H]1C(=O)N1CCN(c2ccccc2)CC1` [Compound 2, methyl (6S,7S)-7-[(hydroxyamino)carbonyl]-6-[(4-phenylpiperazin-1-yl)carbonyl]-5-azaspiro[2.5]octane-5-carboxylate] as the compound, how does the “tumor size on day 6 compared to vehicle” value ([1]; BT474-SC1 xenograft, p=0.0001) read?
A: significantly smaller

Q: What about the “magnitude of change in tumor volume” value ([1]; day 6) of the same compound?
A: 27%

Q: And the “partial remission (greater than a 25% reduction in tumor volume)” value ([1]; day 6)?
A: multiple tumors demonstrated a partial remission

Q: And the “level of circulating ECD on day 6 compared to vehicle” value (circulating Her-2 ECD; BT-474-SC1 tumor bearing mice, osmotic pump, p<0.0001)?
A: significantly lower

Q: And the “magnitude of change in ECD” value (circulating Her-2 ECD; day 6)?
A: 56%

Q: What does the source list for `COc1ccc(S(=O)(=O)N2Cc3ccccc3C[C@@H]2C(=O)NO)cc1` [Compound 4, (3R)-N-hydroxy-2-((4-methoxyphenyl)sulfonyl)-1,2,3,4-tetrahydroisoquinoline-3-carboxamide]?
A: AKT and MAP kinase pathways [2]: not impacted; inhibition of Her-2 cleavage, Western blot ([3]; MPI alone, varying concentrations): inhibition of Her-2 cleavage; blocking Her-2 cleavage, MPI in combination with Herceptin ([3]; combination with Herceptin): additive effect; inhibition of Her-2 cleavage, Western blot [4]: inhibition of Her-2 cleavage; inhibition of Her-2 cleavage [5]: inhibition of Her-2 cleavage; phosphorylation of both AKT and ERK ([6]; sheddase inhibitor in combination with 0.2 μg/ml Herceptin): detectable reduction in phosphorylation; AKT or ERK phosphorylation, single agent ([6]; sheddase inhibitor less than 5 μM alone or 0.2 μg/ml Herceptin alone): did not demonstrate a detectable effect; inhibition of Her-2 cleavage (ECD processing), ELISA (Her-2 sheddase; BT-474 cells, 72 hours): inhibition of Her-2 cleavage

Q: With `CC1(C)SCCN(S(=O)(=O)c2ccc(Oc3ccncc3)cc2)[C@H]1C(=O)NO` [Compound 7, Prinomastat, reference compound] as the compound, how does the pIC50 (Her-2 sheddase) read?
A: 7.00 to 7.70

Q: With `O=C(NO)[C@H]1CC2(CC2)CN[C@@H]1C(=O)N1CC=C(c2ccccc2)CC1` [Compound 3, (6S,7S)-6-{[4-phenyl-3,6-dihydropyridin-1(2H)-yl]carbonyl}-N-hydroxy-5-azaspiro[2.5]octane-7-carboxamide] as the compound, how does the “tumor growth over a 28-day period” value ([1]; BT474-SC1 model, vehicle tumors tripled in size) read?
A: complete suppression of tumor growth
